Where two headings read alike, the source gives them in different places.

This experiment has as its system primary rat mixed cortical cells. The experiment in a line: In vitro myelination assay (MBP positive myelin strands, fold myelin pixels above background). The experiment is classed as cell-based. Particulars: Rattus norvegicus; for fold induction at 1 µM: 1.0 μM compound; for fold induction at 10 µM: 10.0 μM compound. The procedure, abridged: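 P1 rat cortical cells (neurons, OPCs, oligodendrocytes, astrocytes, microglia) were cultured 14 days at 37 °C with compound, with half-medium changes containing 1× compound on days 6 and 10. Fixed cells were immunostained for MBP and imaged at 10×. Total MBP myelin pixels per well were expressed as fold above no-compound baseline at 1.0 μM and 10.0 μM.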

Setting [1] is: read-out: Fold myelin pixels above background relative to baseline of no added compound.
Where [2] appears, read: relative to baseline of no added compound, read-out: Fold myelin pixels above background, 1.0 μM.
Where [3] appears, read: relative to baseline of no added compound, read-out: Fold myelin pixels above background, 10.0 μM.
The mark [4] stands for this setting: relative to baseline of no added compound, read-out: Fold myelin pixels above background.

Take `Cc1cc(Nc2ncn(-c3cc(F)cc(F)c3)n2)cc(N2CCCC2CN2CCCC2CO)c1` (centres unmarked) [Compound 1077, [1-[[1-[3-[[1-(3,5-difluorophenyl)-1,2,4-triazol-3-yl]amino]-5-methyl-phenyl]pyrrolidin-2-yl]methyl]pyrrolidin-2-yl]methanol]: under setting [1], the fold induction at 1 µM lay within 1 to 10 and the fold induction at 10 µM is no more than 1.

On to `Cc1cc(Nc2ncn(-c3cncc(Cl)c3)n2)cc(N2CCN(C3COC3)CC2)c1` [Compound 217, 1-(5-chloro-3-pyridyl)-N-[3-methyl-5-[4-(oxetan-3-yl)piperazin-1-yl]phenyl]-1,2,4-triazol-3-amine], for which the fold induction at 1 µM under setting [2] fell in the range of 10 to 100. The fold induction at 10 µM under setting [3] lay in the range of 10 to 100.

Regarding `CN1CCN(c2cc(Nc3ncn(-c4ccc(F)c(F)c4)n3)cc(Cl)n2)CC1` [Compound 477, 2-chloro-N-[1-(3,4-difluorophenyl)-1,2,4-triazol-3-yl]-6-(4-methylpiperazin-1-yl)pyridin-4-amine], under setting [4], the fold induction at 1 µM was in the range of 10 to 100 and the fold induction at 10 µM is no more than 1.

As for `[2H]C1(N2CCN(c3cc(C)cc(Nc4ncn(-c5ccccc5)n4)c3)CC2)COC1` [Compound 898, N-[3-[4-(3-deuteriooxetan-3-yl)piperazin-1-yl]-5-methyl-phenyl]-1-phenyl-1,2,4-triazol-3-amine], under setting [1], the fold induction at 1 µM was 10 to 100 and the fold induction at 10 µM is no more than 1.

Turning to `COCC1CCN(c2cc(C)cc(Nc3ncn(-c4ccccn4)n3)c2)CC1` [Compound 211, N-[3-[4-(methoxymethyl)-1-piperidyl]-5-methyl-phenyl]-1-(2-pyridyl)-1,2,4-triazol-3-amine], the fold induction at 1 µM under setting [2] lay within 10 to 100. The fold induction at 10 µM under setting [3] lay within 100 to 1000.

For the molecule `FC(F)(F)c1cc(Nc2ncn(-c3cnccn3)n2)cc(N2CCN(C3COC3)CC2)c1` [Compound 514, N-[3-[4-(oxetan-3-yl)piperazin-1-yl]-5-(trifluoromethyl)phenyl]-1-pyrazin-2-yl-1,2,4-triazol-3-amine], under setting [4], the fold induction at 1 µM fell in the range of 10 to 100 and the fold induction at 10 µM lay within 100 to 1000.

For the molecule `Cc1cc(NCC2(C(=O)N(C)C)CCCC2)cc(Nc2ncn(-c3cc(F)cc(F)c3)n2)c1` [Compound 938, 1-[[3-[[1-(3,5-difluorophenyl)-1,2,4-triazol-3-yl]amino]-5-methyl-anilino]methyl]-N,N-dimethyl-cyclopentanecarboxamide], under setting [1], the fold induction at 1 µM was in the range of 1 to 10 and the fold induction at 10 µM was no more than 1.

Consider `Cc1cc(Nc2ncn(-c3ccccc3)n2)cc(C2CN(C3COC3)C2)c1` [Compound 65, N-[3-methyl-5-[1-(oxetan-3-yl)azetidin-3-yl]phenyl]-1-phenyl-1,2,4-triazol-3-amine], for which the fold induction at 1 µM under setting [2] fell in the range of 1000 to 10000. Moreover, the fold induction at 10 µM under setting [3] was 1 to 10.

Regarding `Cc1cc(Nc2ncn(-c3cc(F)cc(F)c3)n2)nc(N2CC3(CCO3)C2)c1` [Compound 571, N-[1-(3,5-difluorophenyl)-1,2,4-triazol-3-yl]-4-methyl-6-(3-oxa-6-azaspiro[3.3]heptan-6-yl)pyridin-2-amine], under setting [4], the fold induction at 1 µM was no more than 1 and the fold induction at 10 µM fell in the range of 1 to 10.

Consider `Cc1cc(Nc2ncn(-c3ccccc3)n2)cc(N2CCN(c3ccccc3F)CC2)c1` [Compound 455, N-[3-[4-(2-fluorophenyl)piperazin-1-yl]-5-methyl-phenyl]-1-phenyl-1,2,4-triazol-3-amine], for which, under setting [4], the fold induction at 1 µM is no more than 1 and the fold induction at 10 µM was in the range of 10 to 100.

Take `Cc1cc(Nc2ncn(-c3cc(F)cc(F)c3)n2)cc(N2CC(N3CCO[C@H](C)C3)C2)c1` (single isomer, unassigned) [Compound 696]: under setting [4], the fold induction at 1 µM was in the range of 10 to 100 and the fold induction at 10 µM lay in the range of 1 to 10.

With `COCCN(C)c1cc(F)cc(-n2cnc(Nc3cc(C)cc(N4CCN(C5COC5)CC4)c3)n2)c1` [Compound 373, 1-[3-fluoro-5-[2-methoxyethyl(methyl)amino]phenyl]-N-[3-methyl-5-[4-(oxetan-3-yl)piperazin-1-yl]phenyl]-1,2,4-triazol-3-amine], the fold induction at 1 µM under setting [2] fell in the range of 100 to 1000. For the same molecule, the fold induction at 10 µM under setting [3] is 100 to 1000.

Consider `CC(C)Oc1cc(F)cc(-n2cnc(Nc3cc(C4CC4)cc(N4CCN(C5COC5)CC4)c3)n2)c1` [Compound 285, N-[3-cyclopropyl-5-[4-(oxetan-3-yl)piperazin-1-yl]phenyl]-1-(3-fluoro-5-isopropoxy-phenyl)-1,2,4-triazol-3-amine], for which the fold induction at 1 µM under setting [2] was in the range of 1 to 10. In addition, the fold induction at 10 µM under setting [3] lay in the range of 10 to 100.

For the molecule `Cc1cc(Nc2ncn(-c3cc(F)cc(F)c3)n2)cc([C@]2(C)CNC(=O)O2)c1` (single isomer, unassigned) [Compound 655], under setting [4], the fold induction at 1 µM is 10 to 100 and the fold induction at 10 µM is no more than 1.

On to `Fc1cc(F)cc(-n2cnc(Nc3cc(C4=CCOCC4)nc(C4CC4)c3)n2)c1` [Compound 35, 2-cyclopropyl-N-[1-(3,5-difluorophenyl)-1,2,4-triazol-3-yl]-6-(3,6-dihydro-2H-pyran-4-yl)pyridin-4-amine], for which the fold induction at 1 µM under setting [2] was 100 to 1000. Also, the fold induction at 10 µM under setting [3] lay in the range of 10 to 100.

Take `Cc1cc(OCC2COC2)cc(Nc2ncn(-c3cc(F)cc(F)c3)n2)c1C` [Compound 909, 1-(3,5-difluorophenyl)-N-[2,3-dimethyl-5-(oxetan-3-ylmethoxy)phenyl]-1,2,4-triazol-3-amine]: under setting [1], the fold induction at 1 µM lay within 1 to 10 and the fold induction at 10 µM was in the range of 10 to 100.

Regarding `Cc1cc(Nc2ncn(-c3ccccc3)n2)cc(C2CCCN(C)C2)c1` (centres unmarked) [Compound 60, N-[3-methyl-5-(1-methyl-3-piperidyl)phenyl]-1-phenyl-1,2,4-triazol-3-amine], the fold induction at 1 µM under setting [2] is 1000 to 10000. Further, the fold induction at 10 µM under setting [3] is no more than 1.

`N#Cc1cc(Nc2ncn(-c3ccccc3)n2)cc(N2CCN(C3COC3)CC2)c1` [Compound 592, 3-[4-(oxetan-3-yl)piperazin-1-yl]-5-[(1-phenyl-1,2,4-triazol-3-yl)amino]benzonitrile]: under setting [4], the fold induction at 1 µM lay in the range of 1 to 10 and the fold induction at 10 µM is no more than 1.

Take `Cc1cc(N2CC(N3CCOCC3)C2)cc(Nc2ncn(-c3cc(F)cc(F)c3)n2)c1C` [Compound 739, 1-(3,5-difluorophenyl)-N-[2,3-dimethyl-5-(3-morpholinoazetidin-1-yl)phenyl]-1,2,4-triazol-3-amine]: under setting [4], the fold induction at 1 µM was in the range of 10 to 100 and the fold induction at 10 µM was 10 to 100.

As to `Cc1cc(Nc2ncn(-c3cc(F)cc(F)c3)n2)nc(C2=CCOCC2)c1` [Compound 774, N-[1-(3,5-difluorophenyl)-1,2,4-triazol-3-yl]-6-(3,6-dihydro-2H-pyran-4-yl)-4-methyl-pyridin-2-amine], under setting [4], the fold induction at 1 µM is 1 to 10 and the fold induction at 10 µM was in the range of 10 to 100.

Consider `Cc1cc(Nc2ncn(-c3ccc(F)c(F)c3)n2)cc(OC2CCCN(C3COC3)C2)c1` (centres unmarked) [Compound 590, 1-(3,4-difluorophenyl)-N-[3-methyl-5-[[1-(oxetan-3-yl)-3-piperidyl]oxy]phenyl]-1,2,4-triazol-3-amine], for which, under setting [4], the fold induction at 1 µM fell in the range of 10 to 100 and the fold induction at 10 µM fell in the range of 1 to 10.

Consider `Cc1cc(Nc2ncn(-c3cnccn3)n2)cc(C2CCCN(C3COC3)C2)c1` (centres unmarked) [Compound 74, N-[3-methyl-5-[1-(oxetan-3-yl)-3-piperidyl]phenyl]-1-pyrazin-2-yl-1,2,4-triazol-3-amine], for which the fold induction at 1 µM under setting [2] is 100 to 1000. Moreover, the fold induction at 10 µM under setting [3] fell in the range of 100 to 1000.

For the molecule `Cc1cc(Nc2ncn(-c3cc(F)cc(F)c3)n2)nc(OCC2CC2)c1` [Compound 980, 6-(cyclopropylmethoxy)-N-[1-(3,5-difluorophenyl)-1,2,4-triazol-3-yl]-4-methyl-pyridin-2-amine], under setting [1], the fold induction at 1 µM lay within 1 to 10 and the fold induction at 10 µM lay within 1 to 10.

For `Cc1cc(Nc2ncn(-c3ccc(F)c(F)c3)n2)cc(N2CCN(C)CC2)n1` [Compound 263, N-[1-(3,4-difluorophenyl)-1,2,4-triazol-3-yl]-2-methyl-6-(4-methylpiperazin-1-yl)pyridin-4-amine], the fold induction at 1 µM under setting [2] was in the range of 10 to 100. For the same molecule, the fold induction at 10 µM under setting [3] was in the range of 100 to 1000.

`COc1ccc(-n2cnc(Nc3cc(C4CC4)nc(N4CCC(C)CC4)c3)n2)cc1OC` [Compound 22, 2-cyclopropyl-N-[1-(3,4-dimethoxyphenyl)-1,2,4-triazol-3-yl]-6-(4-methyl-1-piperidyl)pyridin-4-amine]: the fold induction at 1 µM under setting [2] lay within 100 to 1000. Also, the fold induction at 10 µM under setting [3] was in the range of 100 to 1000.

Consider `Cc1cc(Nc2ncn(-c3cc(F)cc(F)c3)n2)cc(N2CCN(CCCN(C)C)CC2)c1` [Compound 747, 1-(3,5-difluorophenyl)-N-[3-[4-[3-(dimethylamino)propyl]piperazin-1-yl]-5-methyl-phenyl]-1,2,4-triazol-3-amine], for which, under setting [4], the fold induction at 1 µM is no more than 1 and the fold induction at 10 µM is no more than 1.

For `Cc1cc(Nc2ncn(-c3ccccc3)n2)cc(Nc2ncco2)c1` [Compound 838, 5-methyl-N1-oxazol-2-yl-N3-(1-phenyl-1,2,4-triazol-3-yl)benzene-1,3-diamine], under setting [1], the fold induction at 1 µM was no more than 1 and the fold induction at 10 µM is no more than 1.

With `COCc1cc(Nc2ncn(-c3cccc(C(F)(F)F)c3)n2)nc(N2CCN(C3COC3)CC2)c1` [Compound 625, 4-(methoxymethyl)-6-[4-(oxetan-3-yl)piperazin-1-yl]-N-[1-[3-(trifluoromethyl)phenyl]-1,2,4-triazol-3-yl]pyridin-2-amine], under setting [4], the fold induction at 1 µM lay within 1 to 10 and the fold induction at 10 µM lay within 10 to 100.

These data come from US10766869B2, “Triazoles for the treatment of demyelinating dieases” (Vertex Pharmaceuticals Incorporated, priority 2015, dated 2020).
